Key:
[1] = tested on: P. berghei exoerythrocytic forms; experiment: Liver-stage P. berghei hepatocyte invasion and development assay (luminescence, HepG2); format: cell-based, Plasmodium berghei; details: for EC50: Plasmodium berghei, HepG2, 48 h, P. berghei sporozoites, read-out: Liver Stage EC50; for EC50 fold shift compared to asexual stage: Liver Stage EC50: liver stage EC50 / 3D7 EC50
In short: (§1)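 HepG2 cells were pretreated with compound for 2 h, then infected with fresh P. berghei sporozoites. After 48 h, exoerythrocytic-form viability was read by BrightGlo luminescence; hepatocyte toxicity was tested in parallel. EC50s came from 12-point curves run in duplicate, starting at 5 μM or 50 μM.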

P. falciparum = experiment: Rate of killing (parasite viability) assay; format: cell-based, Plasmodium falciparum; details: profile compared with chloroquine, pyrimethamine, atovaquone; 48 h treatment
In short: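 Parasites exposed to compound for 48 h, then washed and given fresh labelled erythrocytes; invasion used as viability surrogate. Double-stained erythrocytes (RBC plus parasite DNA label) counted to give percent survival; time-course profiles benchmarked against chloroquine, pyrimethamine and atovaquone.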

[2] = tested on: ProRS (prolyl t-RNA synthetase L482H, parent Dd2); experiment: Cross-resistance EC50 assay, ProRS; format: cell-based; details: Plasmodium falciparum, SYBR green 72 hour assay, synchronized parasites, 384-well format
Source text: To evaluate potential overlapping activity against known antimalarial drug targets, we performed dose-response studies with each compound against our assembled set of drug-resistant lines and their corresponding parents, in an asexual blood stage proliferation assay (Table 1). Comparisons were made to the drug-sensitive strain 3D7 when a parent was unavailable (TM90C2A, W2 and Dd2). As laboratories conducted EC50 assays with different strains and protocols, all comparisons were made between assays from the same laboratory and under the same assay conditions. Compounds displaying >5-fold EC50 shifts relative to the parent or sensitive strain were flagged as having potentially non-novel targets. Average fold shifts per strain ranged from 0.82 to 2.34, with a median of 1.23 indicating there was not common resistance to any one resistant clone. No resistance patterns were observed when classifying the compounds based on chemical structure, but this was not surprising given the diversity of compounds chosen. On the other hand, given that these confirmed compounds were derived from larger unconfirmed hit lists to which some filtration criteria may have been applied (for example, elimination of obvious dihydrofolate reductase inhibitors[32]), some[10][11][12][13] pre-existing bias may exist in the set. […]
Alternatively, a SYBR Green-based proliferation approach was used for the 72-h assay, as previously described. Briefly, a culture of either synchronized or asynchronous parasitized RBCs (0.3% parasitemia and 4% haematocrit) in screening medium (identical to supplemented medium above except no serum was added) was exposed to serial drug dilutions. Plates were incubated at 37 °C and gassed with 93% N2, 4% CO2 and 3% O2 for 72 h. Following incubation, 10 × SYBR Green I (Invitrogen; supplied in 10,000 × concentration) in lysis buffer ([…], 5 mM EDTA, 0.16% Saponin wt per vol and 1.6% Triton X vol per vol) was added to the wells and the plates were incubated overnight at room temperature before plate reading. EC50 assays were repeated three times, taking the average EC50 value from each assay set, and removing any outliers using a single iteration of Grubbs' test, eliminating values with z-scores above the critical z-value (α=0.05). The raw EC50 values for synchronized parasites assayed in a 384-well format are listed in Supplementary Data 4. The raw EC50 values for asynchronous parasites assayed in a 96 or 1536-well format are listed in Supplementary Data 5.
EC50 values for each strain were compared with those of the corresponding parent strain to determine fold-shift changes and identify resistance. To minimize the cause variance between assays, all comparisons were conducted between strains assayed under identical conditions. A one-way ANOVA followed by a Dunnet's post-test was conducted in GraphPad Prism to identify significant changes between the parent and resistant strain.

HepG2 = experiment: Hepatocyte toxicity; format: cell-based, human; details: for Hepatocyte Toxicity: HepG2; for EC50 fold shift compared to asexual stage: Hepatocyte Toxicity: hepatocyte toxicity / 3D7 EC50; for Liver Stage / Hepatocyte Toxicity: toxicity fold shift for the liver stage (hepatocyte toxicity vs liver stage EC50)
In short: as §1

**Q.** Which EC50 [1] does the source give for `OC(CNC1CCCCC1)Cn1c2ccc(I)cc2c2cc(I)ccc21` (centres unmarked) [MMV665882] here?
**A.** The EC50 was 3060 nM.

**Q.** What about the “EC50 fold shift compared to asexual stage: Liver Stage EC50” value (“EC50 fold shift … Liver Stage EC50” for short) [1] of the same molecule?
**A.** Its value is 42.02.

**Q.** And the “Killing Rate” value (P. falciparum)?
**A.** Its value is “ATQ (slow)”.

**Q.** And the EC50 ([2]; strain ProRS (Dd2 parent))?
**A.** The EC50 was 25 nM.

**Q.** What about the “Hepatocyte Toxicity” value (HepG2) of the same molecule?
**A.** Its value is 13.25 µM.

**Q.** And the “EC50 fold shift compared to asexual stage: Hepatocyte Toxicity” value (“EC50 fold shift … Hepatocyte Toxicity” for short) (HepG2)?
**A.** The value was 182.26.

**Q.** What about the “Liver Stage / Hepatocyte Toxicity” value (HepG2) of the same molecule?
**A.** The value was 4.34.

**Q.** For `O=C(Nc1ccccc1O)c1ccc(Oc2cccc(C(=O)Nc3ccccc3O)c2)cc1` [MMV665888], which EC50 [1] is on record?
**A.** Its EC50 is 648 nM.

**Q.** What about the “EC50 fold shift … Liver Stage EC50” value [1] of the same molecule?
**A.** Its value is 0.54.

**Q.** And the “Killing Rate” value (P. falciparum)?
**A.** The value was “PYR (moderate)”.

**Q.** And the EC50 ([2]; strain ProRS (Dd2 parent))?
**A.** The EC50 was 495 nM.

**Q.** What about the “Hepatocyte Toxicity” value (HepG2) of the same molecule?
**A.** Its value is 4.362 µM.

**Q.** And the “EC50 fold shift … Hepatocyte Toxicity” value (HepG2)?
**A.** Its value is 3.60.

**Q.** And the “Liver Stage / Hepatocyte Toxicity” value (HepG2)?
**A.** The value was 6.73.

**Q.** How did the EC50 [1] turn out when `COc1ccc(C(=O)C2CC2c2ccc(Cl)cc2)cc1` (centres unmarked) [MMV665924] was run?
**A.** Its EC50 is greater than 5000 nM.

**Q.** What about the “EC50 fold shift … Liver Stage EC50” value [1] of the same molecule?
**A.** The value was greater than 6.

**Q.** And the “Killing Rate” value (P. falciparum)?
**A.** The value was “CQ (fast)”.

**Q.** What about the EC50 ([2]; strain ProRS (Dd2 parent)) of the same molecule?
**A.** Its EC50 is 966 nM.

**Q.** What about the “Hepatocyte Toxicity” value (HepG2) of the same molecule?
**A.** The value was greater than 5 µM.

**Q.** And the “EC50 fold shift … Hepatocyte Toxicity” value (HepG2)?
**A.** The value was greater than 6.

**Q.** `CCC(C)NCC(O)(c1ccc(Cl)cc1)c1ccc(Cl)cc1` (centres unmarked) [MMV665928] was tested. Which EC50 [1] did it give?
**A.** The EC50 was greater than 5000 nM.

**Q.** What about the “EC50 fold shift … Liver Stage EC50” value [1] of the same molecule?
**A.** The value was greater than 10.

**Q.** What about the “Killing Rate” value (P. falciparum) of the same molecule?
**A.** Its value is “CQ (fast)”.

**Q.** What about the EC50 ([2]; strain ProRS (Dd2 parent)) of the same molecule?
**A.** The EC50 was 360 nM.

**Q.** And the “Hepatocyte Toxicity” value (HepG2)?
**A.** Its value is greater than 5 µM.

**Q.** And the “EC50 fold shift … Hepatocyte Toxicity” value (HepG2)?
**A.** Its value is greater than 10.

**Q.** How did the EC50 [1] turn out when `O=C(Nc1ccsc1C(=O)NC1CCCCC1)c1ccc(F)cc1` [MMV665939] was run?
**A.** The EC50 was greater than 5000 nM.

**Q.** What about the “Killing Rate” value (P. falciparum) of the same molecule?
**A.** Its value is “ATQ (slow)”.

**Q.** What about the EC50 ([2]; strain ProRS (Dd2 parent)) of the same molecule?
**A.** Its EC50 is 2380 nM.

**Q.** What about the “Hepatocyte Toxicity” value (HepG2) of the same molecule?
**A.** Its value is greater than 5 µM.

**Q.** Which results are given for `Nc1ccc(-c2nc3cc(Cc4ccc5[nH]c(-c6ccc(N)cc6)nc5c4)ccc3[nH]2)cc1` [MMV665943]?
**A.** EC50 [1]: 5950 nM; EC50 fold shift compared to asexual stage: Liver Stage EC50 [1]: 18.84; Killing Rate (P. falciparum): CQ (fast); EC50 ([2]; strain ProRS (Dd2 parent)): 416 nM; Hepatocyte Toxicity (HepG2): 14.29 µM; EC50 fold shift compared to asexual stage: Hepatocyte Toxicity (HepG2): 45.22; Liver Stage / Hepatocyte Toxicity (HepG2): 2.40

**Q.** `COc1cc(C(=O)ON=C(N)Cc2cccc3ccccc23)cc(OC)c1OC` [MMV666687] was tested. Which EC50 [1] did it give?
**A.** Its EC50 is 21000 nM.

**Q.** And the “Killing Rate” value (P. falciparum)?
**A.** Its value is “CQ (fast)”.

**Q.** What about the EC50 ([2]; strain ProRS (Dd2 parent)) of the same molecule?
**A.** Its EC50 is 326 nM.

**Q.** And the “Hepatocyte Toxicity” value (HepG2)?
**A.** The value was 31.52 µM.

**Q.** And the “Liver Stage / Hepatocyte Toxicity” value (HepG2)?
**A.** The value was 1.50.

**Q.** Which EC50 [1] does the source give for `c1cc(-c2cnc3ccc(-c4ccc(N5CCOCC5)cc4)nn23)ccn1` [MMV668311] here?
**A.** Its EC50 is 2250 nM.

**Q.** And the “EC50 fold shift … Liver Stage EC50” value [1]?
**A.** Its value is 46.90.

**Q.** And the “Killing Rate” value (P. falciparum)?
**A.** Its value is “CQ (fast)”.

**Q.** And the EC50 ([2]; strain ProRS (Dd2 parent))?
**A.** Its EC50 is 62 nM.

**Q.** What about the “Hepatocyte Toxicity” value (HepG2) of the same molecule?
**A.** The value was 5.119 µM.

**Q.** What about the “EC50 fold shift … Hepatocyte Toxicity” value (HepG2) of the same molecule?
**A.** Its value is 106.65.

**Q.** What about the “Liver Stage / Hepatocyte Toxicity” value (HepG2) of the same molecule?
**A.** The value was 2.27.

**Q.** Which results are given for `CN(C)CCCNCc1ccc(-c2ccc(Cl)c(Cl)c2)o1` [MMV673964]?
**A.** EC50 [1]: 8990 nM; EC50 fold shift compared to asexual stage: Liver Stage EC50 [1]: 14.81; Killing Rate (P. falciparum): CQ (fast); EC50 ([2]; DD2, ProRS strain): 315 nM; Hepatocyte Toxicity (HepG2): 19.83 µM; EC50 fold shift compared to asexual stage: Hepatocyte Toxicity (HepG2): 32.67; Liver Stage / Hepatocyte Toxicity (HepG2): 2.21
